# From PMC7157241, “Phenotypic Drug Discovery for Human African Trypanosomiasis: A Powerful Approach” (Tropical Medicine and Infectious Disease, 2020)
# Where two headings read alike, the source gives them in different places. Marks after values point to notes of the source that are not given here.
# What was measured:
# [1] = Brain permeability studies in mice (brain to plasma ratio); assay type: in vivo, mouse; conditions: for Kp at 1 h / Kp at 60 min: 5 mg/kg, mouse; for Kp at 60 min: read-out: B/P Ratio (Mouse)
# Experimental: Test compounds were injected (ip) at 5 mg/kg to three mice in a vehicle consisting of DMSO (5%), Tween 80 (7%), and EtOH (3%) in physiological saline (0.9%) solution [8]. At 1 h post injection, blood was collected, and plasma was separated by centrifugation. Simultaneously, the brain was removed and homogenized in acetonitrile. Concentrations of compound in the plasma and brain were determined via liquid chromatography/tandem mass spectrometry. Calculations of brain levels accounted for 3% volume/weight of blood in the brain.
# The long-term goal of the project was to develop a drug for treatment of HAT including late-stage disease involving the central nervous system. […] To assess this, the sixteen hit compounds were injected […] and mice were sacrificed at 60 min (n = 3 mice) for the simultaneous collection of plasma and whole brains for the quantification of compound concentrations. Eleven compounds (1–10, 12) had brain levels of at least 25% of plasma levels and were considered candidates for development. One compound (11) had modest brain permeability of 9%, but was included for further chemistry despite this marginal activity. Four compounds (13–15, 17) had minimal concentrations in the brain (< 2% of plasma levels) and were no longer pursued.
# [2] = Mammalian cell cytotoxicity assay (AlamarBlue, 48 h); assay type: cell-based; conditions: human
# Experimental: Compounds were tested for cytotoxicity against CRL-8155 cells (human lymphoblasts). Cells were grown in culture with serial dilutions of compounds for 48 h and cytotoxicity was assayed using AlamarBlue (Life Technologies, Carlsbad, California CA, USA).
# [3] = Single dose oral pharmacokinetic study in mice; assay type: in vivo; conditions: mouse, oral gavage 50 mg/kg
# Experimental: Test compounds were administered to mice by oral gavage followed by blood sampling at intervals of 30, 60, 120, 240, 360, 480, and 1440 min [5, 7]. Compounds were dosed orally at 50 mg/kg in 0.2 mL of dosing solution (7% Tween 80, 3% ethanol, 5% DMSO, 0.9% saline). Experiments were performed with groups of three mice per compound as published. Plasma was separated and extracted with acetonitrile for measurements of the compound concentrations by liquid chromatography/tandem mass spectrometry.
# New compounds had T. brucei EC50, mammalian host cell cytotoxicity (CC50), and aqueous solubility assayed per our screening cascade (Figure 2). The cut-off values for further advancement are shown. […] The screening results were continuously reviewed by the chemistry group to define structure activity relationships (SAR). […] Mice were administered compounds by oral gavage at 50 mg/kg and whole blood samples were collected on blotting cards at serial time points. The parameters of maximum blood concentration (Cmax) and the concentration of compound integrated over time (area under curve, AUC) were of primary interest. The general rule was to attain plasma concentrations 10 times above the T. brucei EC50 value for at least eight hours. […]
# [4] = Mouse liver microsome stability; conditions: for half-life: mouse, liver microsomes
# [5] = Human microsome stability; assay type: in vitro ADME; conditions: microsomes, Figure 3, read-out: Human microsome t½
# [6] = system: T. brucei brucei (strain BF427); experiment: In vitro parasite growth arrest assay (AlamarBlue); assay type: cell-based, Trypanosoma brucei brucei
# Experimental: Follow up compounds were tested for antiparasitic activity on T. brucei brucei (strain BF427). Parasites were tested in triplicate in the presence of serial dilutions of compound, and growth was quantified with AlamarBlue.
# [7] = Brain permeability studies in mice (brain to plasma ratio); assay type: in vivo; conditions: mouse, 5 mg/kg
# [8] = system: T. b. brucei (strain TREU667); set-up: method as in PMID 27992217; conditions: cited from earlier work
# [9] = set-up: method as in PMID 28835807; conditions: data are for close analog of Scaffold 9 parent (parent had poor ionization in MS); 60 min following IP dose; cited from earlier work
# [10] = system: T. brucei rhodesiense STIB 900 strain; conditions: acute infection model; cited from earlier work
# [11] = system: T. b. brucei (strain TREU667); experiment: Anti-parasite efficacy in mice (chronic model); assay type: in vivo, mouse; conditions: chronic infection model (unpublished)
# Experimental: Groups of six to eight mice were infected with 1 × 10^4 T. b. brucei (strain TREU667) to establish a chronic infection. Treatment began on day 21 post-infection, and mice received 50 mg/kg test compound orally twice per day for 10 days (total of 20 doses) in a 200 μL volume of vehicle. A control group received the vehicle with no compound and another control group received a single intraperitoneal dose of diminazene aceturate at 10 mg/kg on day 21. […] After dosing, parasitemia was monitored via microscopic examination of tail blood slides until 180 days post-infection. Mice were removed from the experiment when parasites were detected in the blood.
# [12] = microsomes
# [13] = in vivo, Figures 4 and 5, read-out: Brain:Plasma ratio
# [14] = in vivo, brain to plasma ratio at 60 min following IP dose
# [15] = lymphocytic cell line CRL-8155, read-out: Mammalian CC50
# [16] = brain and plasma, intraperitoneal, Figure 3, read-out: Brain:Plasma
# [17] = CRL-8155 cells (lymphoblasts), Figure 3, Scaffold 1 optimization, read-out: CC50
# [18] = Trypanosoma brucei, selected hit compounds, Table 1, read-out: T. brucei EC50
# [19] = brain and plasma, brain to plasma ratio at 60 min following IP dose
# [20] = CRL-8155 cells (lymphoblasts), lymphocytic cell line CRL-8155, read-out: Mammalian CC50
# [21] = Trypanosoma brucei, Figure 3, Scaffold 1 optimization, read-out: T. brucei EC50
# [22] = Trypanosoma brucei, Figures 4 and 5, read-out: T. brucei EC50
smiles,measurement,setting,value
O=C(NCCc1nc(-c2ccccc2)cs1)c1ccccc1 [Scaffold 2],Kp at 1 h,[1]; [13],0.3
same,Kp at 60 min,[1]; [14],0.3
same,CC50 at 48 h,[2]; [15],> 50 µM
Cc1nc(C)c(C(=O)Nc2ccc(F)c(-c3nc4ncc(-c5ccccc5Cl)cn4n3)c2)o1 [PN-302],Kp at 1 h,[1]; [16],0.23
same,AUC,[3],55901 µmol·min
same,CC50 at 48 h,[2]; [17],> 50 µM
same,half-life,[4],> 5400 s
same,half-life,[5],> 1.5 h
COc1ccc(CNC(=O)CN(c2cccc(C)c2C)S(=O)(=O)c2ccccc2)cc1 [Scaffold 12],EC50,[6]; [18],1.7 µM
same,Kp at 60 min,[1]; [19],0.267
same,CC50 at 48 h,[2]; [20],> 100 µM
CCn1cc(CN2CCCC(C(=O)Nc3ccc(-c4nc5ccccc5[nH]4)cc3)C2)cn1 (stereo not shown) [Scaffold 10],EC50,[6]; [18],2.44 µM
same,Kp at 60 min,[1]; [19],0.224
COc1ccc(-c2c(C#N)c(SCc3ccccc3)nc(C)c2C(=O)Nc2ccccc2)cc1 [Scaffold 17],EC50,[6]; [18],3.5 µM
same,Kp at 60 min,[1]; [19],0
same,CC50 at 48 h,[2]; [20],> 100 µM
O=c1nc(/C=C/c2cn(Cc3ccccc3F)c3ccccc23)cc(C(F)(F)F)[nH]1 [Scaffold 11],EC50,[6]; [18],3.09 µM
same,Kp at 60 min,[1]; [19],0.09
same,Kp at 60 min,"[7]; brain and plasma, intraperitoneal, mice sacrificed at 60 min, n = 3, read-out: brain levels as percent of plasma levels",0.09
O=C(CSc1nc2scc(-c3ccccc3)c2c(=O)n1-c1ccccc1)Nc1ccccc1F [Scaffold 16],EC50,[6]; [18],0.65 µM
same,plasma and brain levels,[1]; 60-min time point,nearly undetectable plasma and brain levels
same,B/P Ratio (Mouse),[1]; brain to plasma ratio at 60 min following IP dose,No plasma exposure
same,CC50 at 48 h,[2]; [20],> 100 µM
O=C(Nc1ccc(Cl)c(-c2nc3ncccc3o2)c1)N1CCCC1 [Site II: pyrrolidine],EC50,[6]; [21],0.08 µM
same,CC50 at 48 h,[2]; [17],73 µM
same,half-life,[4],48 s
"N=C(N)c1ccc(OCCCCCOc2ccc(C(=N)N)cc2)cc1 [Pentamidine isothionate, reference compound]",EC50,"[6]; positive control included in each assay, read-out: EC50 of positive control",0.0012 ± 0.0003 µM
COCCN1C(=O)c2ccccc2C(C(=O)Nc2ccc(Oc3ccccc3)cc2)C1c1ccc(F)cc1 (stereo not shown) [Scaffold 14],EC50,[6]; [18],0.708 µM
same,Kp at 60 min,[1]; [19],0.01
same,CC50 at 48 h,[2]; [20],> 100 µM
O=C(Nc1ccc(F)c(-c2nc3ncccc3o2)c1)c1ccco1 [Site I: F],EC50,[6]; [21],0.08 µM
same,CC50 at 48 h,[2]; [17],99.7 µM
same,half-life,[4],42 s
O=C(Nc1ccc2sc(-c3ccc(F)c(F)c3)nc2c1)N1CC[C@H](F)C1 [Scaffold 45DAP076],EC50,[6]; [22],0.035 µM
same,Kp at 1 h,[1]; [13],4
same,activity in the chronic T. brucei infection model,[8],curative activity
same,half-life,[4],> 3600 s
O=C(Nc1ccc(Cl)c(-c2nc3cc(Br)cnc3[nH]2)c1)c1ccco1 [Site III: as shown],EC50,[6]; [21],0.05 µM
same,CC50 at 48 h,[2]; [17],200 µM
same,half-life,[4],48 s
O=C(Nc1ccc(F)c(-c2nc3cc(-c4ccccc4)cnc3[nH]2)c1)N1CCCC1 [HB-175],EC50,[6]; [21],0.004 µM
same,Kp at 1 h,[1]; [16],0.04
same,AUC,[3],1236 µmol·min
Cc1cc(C)c(NC(=O)c2cc(S(=O)(=O)N3CCOCC3)cn2C)c(C)c1 [Scaffold 13],EC50,[6]; [18],1 µM
same,Kp at 60 min,[1]; [19],0.02
same,CC50 at 48 h,[2]; [20],> 100 µM
COc1ccc(N2C(=O)CN(Cc3ccccc3)C2=S)cc1Cl [Scaffold 9],EC50,[6]; [18],0.346 µM
same,CC50 at 48 h,[2]; [20],> 50 µM
same,B/P Ratio (Mouse),[9],0.743 ***
O=C(c1ccco1)N(C(=O)c1ccco1)c1ccc(Cl)c(-c2nc3ncccc3o2)c1 [Site V: as shown],EC50,[6]; [21],0.1 µM
same,CC50 at 48 h,[2]; [17],86 µM
same,half-life,[4],42 s
O=c1c2ccccc2nc(SCc2cccnc2)n1Cc1ccco1 [Scaffold 3],EC50,[6]; [18],0.874 µM
same,Kp at 60 min,[1]; [19],2.86
same,CC50 at 48 h,[2]; [20],38 µM
COc1cccc(C2N(c3ccccc3)N=C(C(C)=O)N2c2ccc(C)c(C)c2)c1OCc1ccccc1 (stereo not shown) [Scaffold 15],EC50,[6]; [18],1.5 µM
same,Kp at 60 min,[1]; [19],0
same,CC50 at 48 h,[2]; [20],33 µM
Cc1nn2c(NCCCO)c3c(nc2c1-c1cccs1)CCC3 [Scaffold 6],EC50,[6]; [18],0.307 µM
same,Kp at 60 min,[1]; [19],0.727
same,CC50 at 48 h,[2]; [20],> 100 µM
COc1ccc(-n2nc(C(=O)NCC(=O)N3CCCC(C)C3)c3ccccc3c2=O)cc1Cl (stereo not shown) [Scaffold 7],EC50,[6]; [18],0.657 µM
same,Kp at 60 min,[1]; [19],0.587
same,CC50 at 48 h,[2]; [20],> 50 µM
COc1cc(N2C(=O)CN(Cc3ccc(F)cc3Cl)C2=S)ccc1N(C)C [BA-738],EC50,[6]; [22],0.0019 µM
same,Kp at 1 h,"[1]; brain and plasma, intraperitoneal, Figures 4 and 5, read-out: Brain:Plasma ratio",1.68
same,outcome in acute T. brucei infection in mice,[10],cured mice
same,CC50 at 48 h,"[2]; CRL-8155 cells (lymphoblasts), Figure 5, read-out: Mammalian cell CC50",> 50 µM
same,Mouse liver microsome t½,[4]; Figures 4 and 5,660 s
same,cures in the chronic infection model,[11],20 % of mice
Fc1ccccc1C1C=C(c2cccnc2)Nc2nnnn21 (stereo not shown) [Scaffold 8],EC50,[6]; [18],0.214 µM
same,CC50 at 48 h,[2],14.3 µM
same,Kp at 15 min,"[7]; in vivo, brain to plasma ratio at 15 min following IP dose (Scaffold 8), read-out: B/P Ratio (Mouse)",7.11
O=C(Nc1ccc(Cl)c(-c2nc3ncccc3o2)c1)c1ccco1 [Scaffold 1],EC50,[6]; [21],0.22 µM
same,EC50,[6]; [18],0.218 µM
same,Kp at 60 min,[1]; [14],0.547
same,Mouse microsome t½,[12],48 s
same,CC50 at 48 h,"[2]; Figure 3, Scaffold 1 optimization, read-out: CC50",50 µM
same,CC50 at 48 h,[2]; [15],> 50 µM
